Results reported in PMC12344671 (Journal of Enzyme Inhibition and Medicinal Chemistry, 2025).

What was measured:
[1] = molecular target: mDUSP-H1 (DUSP-H1 from monkeypox virus) (Monkeypox virus, UniProt A0A7H0DN78); assay: biochemical; type: biochemical
normal human cell lines = settings: cited from earlier work
[2] = test system: human dermal fibroblasts (HDF); settings: cited from earlier work
HEK293 = settings: cited from earlier work

Chain of mDUSP-H1 (DUSP-H1 from monkeypox virus) (A0A7H0DN78 whole entry, looked up): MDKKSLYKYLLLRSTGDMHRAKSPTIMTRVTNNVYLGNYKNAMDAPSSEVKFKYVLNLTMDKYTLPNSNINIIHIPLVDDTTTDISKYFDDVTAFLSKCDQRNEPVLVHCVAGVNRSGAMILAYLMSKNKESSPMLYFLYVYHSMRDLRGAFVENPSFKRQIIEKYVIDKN

Row | Structure (SMILES) | IC50 [1] | mDUSP-H1 reactivity compared to the DMSO control [1] | other results
1 | O=C(O[C@@H]1Cc2c(O)cc(O)cc2O[C@@H]1c1cc(O)c(O)c(O)c1)c1cc(O)c(O)c(O)c1 [(−)-Epigallocatechin gallate] | 14 ± 0.35 µM | significantly reduced reactivity | 
2 | Oc1cc(O)c2c(c1)O[C@@H](c1cc(O)c(O)c(O)c1)[C@H](O)C2 [(−)-Gallocatechin] | 9.56 ± 0.32 µM | significantly reduced reactivity | IC50 (normal human cell lines): > 100 µM; non-toxic concentration (normal human cell lines): ≤ 100 µM
3 | O=c1cc(-c2ccccc2)oc2cc(O)c(O)c(O)c12 [Baicalein] | 11.2 ± 0.14 µM | significantly reduced reactivity | 
4 | COc1cc2oc(-c3ccc(O)c(O)c3)cc(=O)c2c(O)c1OC [Cirsiliol] |  | relatively unchanged | 
5 | O=c1cc(-c2ccc(O)cc2)oc2c(-c3c(O)cc(O)c4c(=O)cc(-c5ccc(O)cc5)oc34)c(O)cc(O)c12 [Cupressuflavone] | 11.1 ± 0.18 µM | significantly reduced reactivity | 
6 | COc1ccc(-c2cc(=O)c3c(O)cc(O)cc3o2)cc1O [Diosmetin] |  | relatively unchanged | inhibitory activity against mDUSP-H1 (in words) [1]: no significant inhibitory activity
7 | O=c1c(O)c(-c2ccc(O)cc2)oc2c(O)c(O)cc(O)c12 [Herbacetin] | 12.71 ± 0.08 µM | significantly reduced reactivity | 
8 | O=c1c(O)c(-c2cc(O)c(O)c(O)c2)oc2cc(O)cc(O)c12 [Myricetin] |  | significantly reduced reactivity | IC50 [2]: > 100 µM; IC50 (HEK293): > 100 µM; IC50 (normal human cell lines): > 100 µM
9 | C[C@@H]1O[C@@H](O[C@H]2[C@H](Oc3cc(O)c4c(c3)O[C@H](c3ccc(O)cc3)CC4=O)O[C@H](CO)[C@@H](O)[C@@H]2O)[C@H](O)[C@H](O)[C@H]1O [Naringin] |  | relatively unchanged | inhibitory activity against mDUSP-H1 (in words) [1]: little to no activity
10 | COc1ccc(-c2cc(=O)c3c(O)c(OC)c(O[C@@H]4O[C@H](CO[C@@H]5O[C@@H](C)[C@H](O)[C@@H](O)[C@H]5O)[C@@H](O)[C@H](O)[C@H]4O)cc3o2)cc1 [Pectolinarin] |  | relatively unchanged | 
11 | C[C@@H]1O[C@@H](Oc2c(-c3ccc(O)c(O)c3)oc3cc(O)cc(O)c3c2=O)[C@H](O)[C@H](O)[C@H]1O [Quercitrin] |  | relatively unchanged | inhibitory activity against mDUSP-H1 (in words) [1]: minimal inhibition
